From PubChem BioAssay AID328 (DTP/NCI, 2004)
Several values for one entry are separate records, joined by “and”; a condition that tells them apart may be missing. Equal entries are not always repeated. Toxic doses and inconclusive results are not listed.

Test system: BDF1 mice, P388 leukemia ip, median survival T/C
Assay: NCI In Vivo Anticancer Drug Screen. Data for tumor model P388 Leukemia (intraperitoneal) in B6D2F1 (BDF1) mice
Conditions: endpoint: median survival time, higher = longer survival
Outline: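 Read-out is survival of treated animals expressed relative to the vehicle group, as a T/C ratio.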

[1] = dose: 100.0 mg/kg/injection, schedule: Q04DX003 (ip), vehicle: Klucel (hydroxypropylcellulose) (HPC)
[2] = dose: 200.0 mg/kg/injection, schedule: Q04DX003 (ip), vehicle: Klucel (hydroxypropylcellulose) (HPC)
[3] = dose: 400.0 mg/kg/injection, schedule: Q04DX003 (ip), vehicle: Klucel (hydroxypropylcellulose) (HPC)
[4] = dose: 100.0 mg/kg/injection, schedule: Q01DX009 (ip), vehicle: saline with Tween-80
[5] = dose: 200.0 mg/kg/injection, schedule: Q01DX009 (ip), vehicle: saline with Tween-80
[6] = dose: 400.0 mg/kg/injection, schedule: Q01DX009 (ip), vehicle: saline with Tween-80
[7] = dose: 100.0 mg/kg/injection, schedule: Q04DX003 (ip), vehicle: saline
[8] = dose: 6.25 mg/kg/injection, schedule: Q01DX009 (ip), vehicle: saline
[9] = dose: 12.5 mg/kg/injection, schedule: Q01DX009 (ip), vehicle: saline
[10] = dose: 25.0 mg/kg/injection, schedule: Q01DX009 (ip), vehicle: saline
[11] = dose: 12.5 mg/kg/injection, schedule: Q01DX009 (ip), vehicle: Klucel (hydroxypropylcellulose) (HPC)
[12] = dose: 25.0 mg/kg/injection, schedule: Q01DX009 (ip), vehicle: Klucel (hydroxypropylcellulose) (HPC)
[13] = dose: 50.0 mg/kg/injection, schedule: Q01DX009 (ip), vehicle: saline with Tween-80

## CCOC(=O)C1CCCC23CC(CC12)C(C)(C)C3Br (centres undefined)
[1]
  T/C: 100 % of control
[2]
  T/C: 90 % of control
[3]
  T/C: 100 % of control

## O=C1C=CC(=O)N1
dose: 0.26 mg/kg/injection, schedule: Q01DX009 (ip), vehicle: saline
  T/C: 105 % of control
dose: 0.4 mg/kg/injection, schedule: Q01DX009 (ip), vehicle: saline
  T/C: 90 % of control
dose: 0.61 mg/kg/injection, schedule: Q01DX009 (ip), vehicle: saline
  T/C: 100 % of control
dose: 0.93 mg/kg/injection, schedule: Q01DX009 (ip), vehicle: saline
  T/C: 109 % of control
dose: 1.39 mg/kg/injection, schedule: Q01DX009 (ip), vehicle: saline
  T/C: 118 % of control
dose: 3.6 mg/kg/injection, schedule: Q04DX003 (ip), vehicle: saline
  T/C: 95 % of control
dose: 8.5 mg/kg/injection, schedule: Q04DX003 (ip), vehicle: saline
  T/C: 104 % of control

## Cc1ccc(N2C(=O)CC(Sc3ccccc3N)C2=O)cc1Cl (centres undefined)
[4]
  T/C: 110 % of control
dose: 100.0 mg/kg/injection, schedule: Q04DX003 (ip), vehicle: saline with Tween-80
  T/C: 95 % of control
[5]
  T/C: 90 % of control
dose: 200.0 mg/kg/injection, schedule: Q04DX003 (ip), vehicle: saline with Tween-80
  T/C: 109 % of control
[6]
  T/C: 105 % of control
dose: 400.0 mg/kg/injection, schedule: Q04DX003 (ip), vehicle: saline with Tween-80
  T/C: 109 % of control

## Nc1ccccc1CCCC(=O)O
[7]
  T/C: 100 % of control
dose: 200.0 mg/kg/injection, schedule: Q04DX003 (ip), vehicle: saline
  T/C: 100 % of control
dose: 400.0 mg/kg/injection, schedule: Q04DX003 (ip), vehicle: saline
  T/C: 104 % of control

## COc1ccc(/C=C/c2ccnc3ccccc23)cc1
[4]
  T/C: 93 % of control
[5]
  T/C: 111 % of control
[6]
  T/C: 93 % of control

## N=C(N)SCc1ccccc1
dose: 50.0 mg/kg/injection, schedule: Q01DX001 (ip), vehicle: saline
  T/C: 98 % of control

## CN(C)Cc1c[nH]c2nccnc12
dose: 3.12 mg/kg/injection, schedule: Q01DX009 (ip), vehicle: saline
  T/C: 95 % of control
[8]
  T/C: 109 % of control
[9]
  T/C: 101 % of control
[10]
  T/C: 93 % of control
dose: 25.0 mg/kg/injection, schedule: Q04DX003 (ip), vehicle: saline
  T/C: 99 % of control
dose: 50.0 mg/kg/injection, schedule: Q01DX009 (ip), vehicle: saline
  T/C: 100 % of control
dose: 50.0 mg/kg/injection, schedule: Q04DX003 (ip), vehicle: saline
  T/C: 100 % of control and 101 % of control
dose: 100.0 mg/kg/injection, schedule: Q01DX009 (ip), vehicle: saline
  T/C: 100 % of control
[7]
  T/C: 92 % of control and 100 % of control

## Cc1n(CC(C)C)c2c([n+]1C)C(=O)c1ccccc1C2=O
dose: 0.25 mg/kg/injection, schedule: Q01DX010 (ip), vehicle: saline
  T/C: 90 % of control
dose: 0.5 mg/kg/injection, schedule: Q01DX010 (ip), vehicle: saline
  T/C: 90 % of control
dose: 1.0 mg/kg/injection, schedule: Q01DX009 (ip), vehicle: saline
  T/C: 105 % of control
dose: 1.0 mg/kg/injection, schedule: Q01DX010 (ip), vehicle: saline
  T/C: 90 % of control
dose: 2.0 mg/kg/injection, schedule: Q01DX009 (ip), vehicle: saline
  T/C: 120 % of control
dose: 2.0 mg/kg/injection, schedule: Q01DX010 (ip), vehicle: saline
  T/C: 120 % of control

## OC1CCCC2CCC[N-]C12.OC1CCCC2CCC[N-]C12.[O]=[V][OH] (centres undefined)
dose: 3.12 mg/kg/injection, schedule: Q01DX009 (ip), vehicle: Klucel (hydroxypropylcellulose) (HPC)
  T/C: 100 % of control
dose: 6.25 mg/kg/injection, schedule: Q01DX009 (ip), vehicle: Klucel (hydroxypropylcellulose) (HPC)
  T/C: 95 % of control
[8]
  T/C: 110 % of control
[11]
  T/C: 100 % of control
[9]
  T/C: 150 % of control
[12]
  T/C: 100 % of control

## COC(=O)c1c(I)cccc1[N+](=O)[O-]
[1]
  T/C: 91 % of control
[2]
  T/C: 95 % of control
[3]
  T/C: 100 % of control

## COc1cc2c(=O)n(C)c3c4cc5c(cc4ccc3c2cc1OC)OCO5
dose: 1.0 mg/kg/injection, schedule: Q01DX010 (ip), vehicle: steriod suspending solution
  T/C: 103 % of control
dose: 3.0 mg/kg/injection, schedule: Q01DX010 (ip), vehicle: steriod suspending solution
  T/C: 117 % of control
dose: 6.0 mg/kg/injection, schedule: Q01DX010 (ip), vehicle: steriod suspending solution
  T/C: 110 % of control

## O=P(N1CCOCC1)(N1CC1)N1CC1
[9]
  T/C: 251 % of control and 290 % of control
[10]
  T/C: 90 % of control

## NC(CSC(c1ccccc1)(c1ccccc1)c1ccc(F)cc1)C(=O)O (centres undefined)
dose: 2.9 mg/kg/injection, schedule: Q01DX009 (ip), vehicle: Klucel (hydroxypropylcellulose) (HPC)
  T/C: 107 % of control
dose: 4.3 mg/kg/injection, schedule: Q01DX009 (ip), vehicle: Klucel (hydroxypropylcellulose) (HPC)
  T/C: 123 % of control
[11]
  T/C: 170 % of control
dose: 23.0 mg/kg/injection, schedule: Q01DX009 (ip), vehicle: Klucel (hydroxypropylcellulose) (HPC)
  T/C: 216 % of control
[12]
  T/C: 227 % of control
dose: 25.0 mg/kg/injection, schedule: Q04DX003 (ip), vehicle: Klucel (hydroxypropylcellulose) (HPC)
  T/C: 170 % of control
dose: 35.0 mg/kg/injection, schedule: Q01DX009 (ip), vehicle: Klucel (hydroxypropylcellulose) (HPC)
  T/C: 222 % of control
dose: 50.0 mg/kg/injection, schedule: Q01DX009 (ip), vehicle: Klucel (hydroxypropylcellulose) (HPC)
  T/C: 255 % of control and 104 % of control and 209 % of control
dose: 50.0 mg/kg/injection, schedule: Q04DX003 (ip), vehicle: Klucel (hydroxypropylcellulose) (HPC)
  T/C: 180 % of control
dose: 75.0 mg/kg/injection, schedule: Q01DX009 (ip), vehicle: Klucel (hydroxypropylcellulose) (HPC)
  T/C: 90 % of control
dose: 100.0 mg/kg/injection, schedule: Q01DX009 (ip), vehicle: Klucel (hydroxypropylcellulose) (HPC)
  T/C: 194 % of control
[1]
  T/C: 175 % of control and 185 % of control
dose: 200.0 mg/kg/injection, schedule: Q01DX009 (ip), vehicle: Klucel (hydroxypropylcellulose) (HPC)
  T/C: 100 % of control
[2]
  T/C: 285 % of control and 205 % of control

## O=C(Nc1nc(Cl)nc(Cl)n1)N1CCOCC1
dose: 6.25 mg/kg/injection, schedule: Q01DX009 (ip), vehicle: saline with Tween-80
  T/C: 104 % of control
dose: 9.0 mg/kg/injection, schedule: Q01DX009 (ip), vehicle: saline with Tween-80
  T/C: 103 % of control
dose: 12.0 mg/kg/injection, schedule: Q01DX009 (ip), vehicle: saline with Tween-80
  T/C: 112 % of control
dose: 12.5 mg/kg/injection, schedule: Q04DX003 (ip), vehicle: saline with Tween-80
  T/C: 118 % of control
dose: 18.0 mg/kg/injection, schedule: Q01DX009 (ip), vehicle: saline with Tween-80
  T/C: 112 % of control
dose: 25.0 mg/kg/injection, schedule: Q04DX003 (ip), vehicle: saline with Tween-80
  T/C: 109 % of control

## Clc1cc(Cl)c(I)c(Cl)c1
[4]
  T/C: 92 % of control
[1]
  T/C: 100 % of control
[5]
  T/C: 89 % of control
[2]
  T/C: 100 % of control
[6]
  T/C: 96 % of control
[3]
  T/C: 91 % of control

## CCCCCCC(=O)/C=C/c1cccc(O)c1
[13]
  T/C: 104 % of control
[4]
  T/C: 104 % of control
[5]
  T/C: 95 % of control

## CCOC(=O)c1cnc(=O)[nH]c1N
[13]
  T/C: 99 % of control

## CCCSC(CC=O)CCC (centres undefined)
dose: 100.0 mg/kg/injection, schedule: Q01DX001 (ip), vehicle: suspension in saline
  T/C: 106 % of control
dose: 200.0 mg/kg/injection, schedule: Q01DX001 (ip), vehicle: suspension in saline
  T/C: 92 % of control
dose: 400.0 mg/kg/injection, schedule: Q01DX001 (ip), vehicle: suspension in saline
  T/C: 88 % of control

## COc1cc2c(c3c1c(=O)c1cc(O)ccc1n3C)C=CC(C)(C)O2
dose: 5.0 mg/kg/injection, schedule: Q01DX009 (ip), vehicle: Klucel (hydroxypropylcellulose) (HPC)
  T/C: 114 % of control
dose: 10.0 mg/kg/injection, schedule: Q01DX009 (ip), vehicle: Klucel (hydroxypropylcellulose) (HPC)
  T/C: 113 % of control
dose: 20.0 mg/kg/injection, schedule: Q01DX009 (ip), vehicle: Klucel (hydroxypropylcellulose) (HPC)
  T/C: 112 % of control
dose: 40.0 mg/kg/injection, schedule: Q01DX009 (ip), vehicle: Klucel (hydroxypropylcellulose) (HPC)
  T/C: 106 % of control
